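Values below derive from 48-hour exposures of cells grown in 96-well plates, with endpoints linearly interpolated between the two concentrations bracketing the appropriate inhibition level. TGI is the concentration that stops growth completely.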
Key:
Assay in all cases: growth of human tumour cells (NCI), 48 h
SR leukemia = system: SR leukemia
CCRF-CEM leukemia = system: CCRF-CEM leukemia
MALME-3M melanoma = system: MALME-3M melanoma
A498 renal = system: A498 renal
MDA-MB-231 breast = system: MDA-MB-231 breast
RPMI-8226 leukemia = system: RPMI-8226 leukemia
ACHN renal = system: ACHN renal
MDA-MB-435 = system: MDA-MB-435
M14 melanoma = system: M14 melanoma
HL-60(TB) leukemia = system: HL-60(TB) leukemia
U251 CNS = system: U251 CNS
PC-3 prostate = system: PC-3 prostate
IGROV1 ovarian = system: IGROV1 ovarian
OVCAR-4 ovarian = system: OVCAR-4 ovarian
SN12C renal = system: SN12C renal
UACC-62 melanoma = system: UACC-62 melanoma
OVCAR-5 ovarian = system: OVCAR-5 ovarian
MDA-N = system: MDA-N
HCT-15 colon = system: HCT-15 colon
RXF 393 renal = system: RXF 393 renal
T-47D breast = system: T-47D breast
SK-MEL-2 melanoma = system: SK-MEL-2 melanoma
UACC-257 melanoma = system: UACC-257 melanoma
786-0 renal = system: 786-0 renal
BT-549 breast = system: BT-549 breast
NCI-H460 lung = system: NCI-H460 lung
CAKI-1 renal = system: CAKI-1 renal
TK-10 renal = system: TK-10 renal
UO-31 renal = system: UO-31 renal
NCI-H23 lung = system: NCI-H23 lung
OVCAR-3 ovarian = system: OVCAR-3 ovarian
NCI/ADR-RES ovarian = system: NCI/ADR-RES ovarian
A549 NSCLC = system: A549 NSCLC
K-562 leukemia = system: K-562 leukemia
OVCAR-8 ovarian = system: OVCAR-8 ovarian
SK-MEL-28 melanoma = system: SK-MEL-28 melanoma
EKVX NSCLC = system: EKVX NSCLC
HS 578T breast = system: HS 578T breast
NCI-H226 lung = system: NCI-H226 lung
HT29 colon = system: HT29 colon
SF-268 CNS = system: SF-268 CNS
HCT-116 colon = system: HCT-116 colon
SF-295 CNS = system: SF-295 CNS
MOLT-4 leukemia = system: MOLT-4 leukemia
LOX IMVI melanoma = system: LOX IMVI melanoma
HOP-92 NSCLC = system: HOP-92 NSCLC
KM12 colon = system: KM12 colon
HOP-62 NSCLC = system: HOP-62 NSCLC
SW-620 colon = system: SW-620 colon
NCI-H522 lung = system: NCI-H522 lung
SK-MEL-5 melanoma = system: SK-MEL-5 melanoma
SNB-19 CNS = system: SNB-19 CNS
COLO 205 colon = system: COLO 205 colon
SF-539 CNS = system: SF-539 CNS
MCF7 breast = system: MCF7 breast
SNB-75 CNS = system: SNB-75 CNS
SK-OV-3 ovarian = system: SK-OV-3 ovarian
DU-145 prostate = system: DU-145 prostate
HCC-2998 colon = system: HCC-2998 colon

SMILES: NC(Cc1ccccc1)P(=O)(O)O (stereo not drawn)
- TGI (SR leukemia): > 100 µM
- TGI (CCRF-CEM leukemia): > 100 µM
- TGI (MALME-3M melanoma): > 100 µM
- TGI (A498 renal): > 100 µM
- TGI (MDA-MB-231 breast): > 100 µM
- TGI (RPMI-8226 leukemia): > 100 µM
- TGI (ACHN renal): > 100 µM
- TGI (MDA-MB-435): > 100 µM
- TGI (M14 melanoma): > 100 µM
- TGI (HL-60(TB) leukemia): > 100 µM
- TGI (U251 CNS): > 100 µM
- TGI (PC-3 prostate): > 100 µM
- TGI (IGROV1 ovarian): > 100 µM
- TGI (OVCAR-4 ovarian): > 100 µM
- TGI (SN12C renal): > 100 µM
- TGI (UACC-62 melanoma): > 100 µM
- TGI (OVCAR-5 ovarian): > 100 µM
- TGI (MDA-N): > 100 µM
- TGI (HCT-15 colon): > 100 µM
- TGI (RXF 393 renal): > 100 µM
- TGI (T-47D breast): > 100 µM
- TGI (SK-MEL-2 melanoma): > 100 µM
- TGI (UACC-257 melanoma): > 100 µM
- TGI (786-0 renal): > 100 µM
- TGI (BT-549 breast): > 100 µM
- TGI (NCI-H460 lung): > 100 µM
- TGI (CAKI-1 renal): > 100 µM
- TGI (TK-10 renal): > 100 µM
- TGI (UO-31 renal): > 100 µM
- TGI (NCI-H23 lung): > 100 µM
- TGI (OVCAR-3 ovarian): > 100 µM
- TGI (NCI/ADR-RES ovarian): > 100 µM
- TGI (A549 NSCLC): > 100 µM
- TGI (K-562 leukemia): > 100 µM
- TGI (OVCAR-8 ovarian): > 100 µM
- TGI (SK-MEL-28 melanoma): > 100 µM
- TGI (EKVX NSCLC): > 100 µM
- TGI (HS 578T breast): > 100 µM
- TGI (NCI-H226 lung): > 100 µM
- TGI (HT29 colon): > 100 µM
- TGI (SF-268 CNS): > 100 µM
- TGI (HCT-116 colon): > 100 µM
- TGI (SF-295 CNS): > 100 µM
- TGI (MOLT-4 leukemia): > 100 µM
- TGI (LOX IMVI melanoma): > 100 µM
- TGI (HOP-92 NSCLC): > 100 µM
- TGI (KM12 colon): > 100 µM
- TGI (HOP-62 NSCLC): > 100 µM
- TGI (SW-620 colon): > 100 µM
- TGI (NCI-H522 lung): > 100 µM
- TGI (SK-MEL-5 melanoma): > 100 µM
- TGI (SNB-19 CNS): > 100 µM

SMILES: CCn1c2ccccc2c2cc(N=Nc3ccc(C#N)cc3)ccc21
- TGI (CCRF-CEM leukemia): > 100 µM
- TGI (MALME-3M melanoma): 52.7 µM
- TGI (A498 renal): 70 µM
- TGI (MDA-MB-231 breast): 59 µM
- TGI (ACHN renal): > 100 µM
- TGI (MDA-MB-435): > 100 µM
- TGI (COLO 205 colon): > 100 µM
- TGI (M14 melanoma): > 100 µM
- TGI (HL-60(TB) leukemia): > 100 µM
- TGI (U251 CNS): > 100 µM
- TGI (PC-3 prostate): > 100 µM
- TGI (IGROV1 ovarian): > 100 µM
- TGI (OVCAR-4 ovarian): > 100 µM
- TGI (SN12C renal): > 100 µM
- TGI (UACC-62 melanoma): > 100 µM
- TGI (OVCAR-5 ovarian): > 100 µM
- TGI (MDA-N): > 100 µM
- TGI (HCT-15 colon): > 100 µM
- TGI (T-47D breast): > 100 µM
- TGI (SF-539 CNS): > 100 µM
- TGI (SK-MEL-2 melanoma): > 100 µM
- TGI (UACC-257 melanoma): > 100 µM
- TGI (786-0 renal): > 100 µM
- TGI (BT-549 breast): 57.1 µM
- TGI (NCI-H460 lung): > 100 µM
- TGI (CAKI-1 renal): > 100 µM
- TGI (TK-10 renal): > 100 µM
- TGI (UO-31 renal): > 100 µM
- TGI (NCI-H23 lung): 68.6 µM
- TGI (OVCAR-3 ovarian): > 100 µM
- TGI (A549 NSCLC): > 100 µM
- TGI (OVCAR-8 ovarian): > 100 µM
- TGI (MCF7 breast): > 100 µM
- TGI (SNB-75 CNS): 87.6 µM
- TGI (SK-MEL-28 melanoma): > 100 µM
- TGI (EKVX NSCLC): > 100 µM
- TGI (HS 578T breast): > 100 µM
- TGI (NCI-H226 lung): > 100 µM
- TGI (HT29 colon): > 100 µM
- TGI (SK-OV-3 ovarian): > 100 µM
- TGI (SF-268 CNS): > 100 µM
- TGI (HCT-116 colon): > 100 µM
- TGI (SF-295 CNS): > 100 µM
- TGI (MOLT-4 leukemia): > 100 µM
- TGI (LOX IMVI melanoma): 61.8 µM
- TGI (DU-145 prostate): > 100 µM
- TGI (HOP-92 NSCLC): 79.7 µM
- TGI (KM12 colon): > 100 µM
- TGI (HOP-62 NSCLC): > 100 µM
- TGI (SW-620 colon): > 100 µM
- TGI (NCI-H522 lung): > 100 µM
- TGI (SK-MEL-5 melanoma): > 100 µM
- TGI (SNB-19 CNS): 71.6 µM

SMILES: Cc1ccc(C(=O)Nc2ccc(S(=O)(=O)O)c3cc(S(=O)(=O)O)cc(S(=O)(=O)O)c23)cc1N
- TGI (SR leukemia): > 100 µM
- TGI (CCRF-CEM leukemia): > 100 µM
- TGI (MALME-3M melanoma): > 100 µM
- TGI (A498 renal): > 100 µM
- TGI (MDA-MB-231 breast): > 100 µM
- TGI (ACHN renal): > 100 µM
- TGI (COLO 205 colon): > 100 µM
- TGI (M14 melanoma): > 100 µM
- TGI (HL-60(TB) leukemia): > 100 µM
- TGI (PC-3 prostate): > 100 µM
- TGI (IGROV1 ovarian): > 100 µM
- TGI (OVCAR-4 ovarian): > 100 µM
- TGI (SN12C renal): > 100 µM
- TGI (UACC-62 melanoma): > 100 µM
- TGI (OVCAR-5 ovarian): > 100 µM
- TGI (MDA-N): > 100 µM
- TGI (HCT-15 colon): > 100 µM
- TGI (RXF 393 renal): > 100 µM
- TGI (T-47D breast): > 100 µM
- TGI (SF-539 CNS): > 100 µM
- TGI (SK-MEL-2 melanoma): > 100 µM
- TGI (UACC-257 melanoma): > 100 µM
- TGI (786-0 renal): > 100 µM
- TGI (BT-549 breast): > 100 µM
- TGI (NCI-H460 lung): > 100 µM
- TGI (CAKI-1 renal): > 100 µM
- TGI (TK-10 renal): > 100 µM
- TGI (UO-31 renal): > 100 µM
- TGI (NCI-H23 lung): > 100 µM
- TGI (OVCAR-3 ovarian): > 100 µM
- TGI (NCI/ADR-RES ovarian): > 100 µM
- TGI (K-562 leukemia): > 100 µM
- TGI (OVCAR-8 ovarian): > 100 µM
- TGI (MCF7 breast): > 100 µM
- TGI (SNB-75 CNS): > 100 µM
- TGI (SK-MEL-28 melanoma): > 100 µM
- TGI (EKVX NSCLC): > 100 µM
- TGI (HS 578T breast): > 100 µM
- TGI (NCI-H226 lung): > 100 µM
- TGI (HT29 colon): > 100 µM
- TGI (HCC-2998 colon): > 100 µM
- TGI (SK-OV-3 ovarian): > 100 µM
- TGI (SF-268 CNS): > 100 µM
- TGI (HCT-116 colon): > 100 µM
- TGI (SF-295 CNS): > 100 µM
- TGI (MOLT-4 leukemia): > 100 µM
- TGI (DU-145 prostate): > 100 µM
- TGI (KM12 colon): > 100 µM
- TGI (HOP-62 NSCLC): > 100 µM
- TGI (SW-620 colon): > 100 µM
- TGI (NCI-H522 lung): > 100 µM
- TGI (SK-MEL-5 melanoma): > 100 µM
- TGI (SNB-19 CNS): > 100 µM
